Each molecule was assayed on D54 ERlucT glycosylation luciferase reporter, luminescence, 24 h (assay: blockers of NLG process in reporter cells – D54 ERlucT cells, luminescence, cherry-picks, dose response (AID 624491);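 further: signal gain reflects blocked N-linked glycosylation of a luciferase reporter; actives raise luciferase signal so AC26 marks activators of the reporter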).

| Structure (SMILES) | AC26 [nM] |
| --- | --- |
| Cn1cc(/C=N/n2cnc3scc(-c4ccc(Cl)cc4)c3c2=O)c2ccccc21 | 58.4 |
| Nc1nc(=S)c2ncn(C3OC(CO)C(O)C3O)c2[nH]1 (stereo not drawn) | 4980 |
| COc1ccc2c(c1)[C@H]1[C@H](CO2)[C@H](c2ccccc2)[C@]2(C)C(=O)Nc3cc(OC)c(OC)cc3C(=O)N12 | 13.1 |
| COc1cc(OC)c2nc(C)c3c(c2c1)N(c1ccc(O)cc1)CC3 | 1190 |
| O=C(NCCc1ccc(F)cc1)c1coc(=O)c(Br)c1 | 413 |
| Cc1cc(C)nc(N2Cc3ccccc3C2=N)n1 | 4560 |
| CC(C)c1ccc(NC(=O)CN2C(=O)NC3(CCCCCCC3)C2=O)cc1 | 1210 |
| COc1cc(/C=C/c2onc(C)c2[N+](=O)[O-])cc(OC)c1OC | 864 |
| Cc1cc(C)c(NC(=O)CSc2nc(COc3ccccc3)nc3ccccc23)c(C)c1 | 5220 |
| CC[C@H](C)[C@@H](NC(=O)O[C@@H]1C(=O)c2cc(OC)ccc2O[C@H]1c1ccc(OC)c(Br)c1)C(=O)OC | 335 |
| Cc1ccc(CSc2ccc3nnc(-c4cccnc4)n3n2)cc1 | 1170 |
| Cc1cnc(NC(=O)c2cc(S(=O)(=O)N(C)C)ccc2N2CCCC2)s1 | 10.7 |
| O=C(C=Cc1cccc(O)c1)c1ccccc1O | 3290 |
| CCN(CC)CCNC(=O)c1cc2c(-c3ccc(Cl)cc3)nn(C)c2s1 | 3330 |
| CN(C1=C(NC(=O)c2ccc(Cl)cc2)C(=O)c2ccccc2C1=O)c1ccccc1 | 3410 |
| COc1ccc(F)cc1-c1cc(NC(C)=O)c2ncc(-c3cc(OC)c(OC)c(OC)c3)n2c1 | 11300 |
| COc1cccc(N2CCN(C(=O)c3ccc(CS(=O)c4ccc(Cl)cc4)o3)CC2)c1 (stereo not drawn) | 234 |
| FC(F)(F)c1cccc(Sc2nc(-c3ccccc3)nnc2C(F)(F)F)c1 | 2340 |
| CCOc1ccccc1NC(=O)CN(c1ccc(OC)cc1)S(=O)(=O)c1c(C)noc1C | 4150 |
| COc1ccc(C(=O)CSc2nnc(-c3cc4ccccc4cc3O)n2Cc2ccco2)cc1 | 1840 |
| CC(=O)Nc1sc(C)c(C)c1C(=O)OCC(=O)Nc1ccccc1 | 4780 |
| COc1cc2c(cc1OC)C(C)N(C(=O)Nc1cc(C)cc(C)c1)CC2 (stereo not drawn) | 6970 |
| CC(C)Oc1ccc(C(=O)/C=C2/C(=O)Nc3ccccc32)cc1 | 3230 |
| Cc1ccc(-c2cc(C(=O)Nc3ccncc3)c3ccccc3n2)cc1 | 1910 |
| COc1cccc(Sc2ccccc2/C=N/NC(N)=O)c1 | 8340 |
| CC(C)c1c(C(=O)Nc2ccccc2)c(-c2ccccc2)c(-c2ccc(F)cc2)n1CC[C@@H](O)C[C@@H](O)CC(=O)O | 68.2 |
| O=c1c2ccccc2sc2c(CO)ccc(NCCN3CCCCC3)c12 | 705 |

| Structure (SMILES) | AC26 [nM] |
| --- | --- |
| COc1ccccc1NS(=O)(=O)c1ccc(C(=O)Nc2ncccc2O)cc1 | 7090 |
| CCOc1cc(-c2cc(-c3ccccc3)nc(N)c2C#N)ccc1O | 2480 |
| COc1ccc2[nH]c3c(N4CCC(O)(c5cccc(C(F)(F)F)c5)CC4)ncnc3c2c1 | 2740 |
| CCOC(=O)c1c(NC(=O)CN2C(=O)NC3(CCCCC3C)C2=O)sc(C)c1CC (stereo not drawn) | 6750 |
| C=CCn1c(SCc2c(C)noc2C)nc2sc3c(c2c1=O)CCC(C)C3 (stereo not drawn) | 2060 |
| CCOC(=O)c1c(NC(C)=O)sc2c(OCCN(CC)CC)c(Br)ccc12 | 2690 |
| CCN(CC)c1ccc(NC(=O)c2cc(OC)cc(OC)c2)c(C)c1 | 932 |
| COc1ccc(Nc2nc(N)c(C(=O)c3ccc(OC)cc3)s2)cc1 | 483 |
| CCN(CC)c1ccc(NC(=O)CC2Oc3ccccc3NC2=O)c(C)c1 (stereo not drawn) | 11600 |
| O=C(C=Cc1ccccc1F)c1ccccc1 | 3230 |
| CC(=O)Nc1ccc(CNc2ncnc3ccc(-c4c(C)noc4C)cc23)cc1 | 290 |
| CC(=O)Nc1cccc(-c2ccnc3c2CC(C)(C(=O)NCc2cccs2)O3)c1 (stereo not drawn) | 1450 |
| NNC(=O)c1oc2nc(-c3ccco3)cc(-c3ccco3)c2c1N | 4260 |
| COc1ccc(C2=NOC(C(=O)NCc3cccs3)C2)cc1 (stereo not drawn) | 1010 |
| CCOC(=O)N1CCN(c2c(NCc3ccc(F)cc3)c(=O)c2=O)CC1 | 8400 |
| CCOc1ccc(Br)cc1C(=O)Nc1ccc(C(=O)NCC(C)C)cc1 | 4090 |
| COc1ccc(/C=C/C(=O)Oc2cccc(/C=N/NC(=O)COc3c(C)cccc3C)c2)cc1 | 4770 |
| CC(=O)Nc1ccc2cc3ccc(NC(C)=O)cc3nc2c1 | 5210 |
| Cc1cc(NC(=O)CSc2nc(-c3ccco3)cc(C(F)(F)F)n2)no1 | 565 |
| CN(C)CCCNc1cc(-c2ccccc2)nc2cc(-c3cccc(F)c3)nn12 | 5210 |
| C[C@@H](NC(=O)c1nc[nH]c1C(=O)N1CCN(c2ccccc2)CC1)c1ccccc1 | 2110 |
| CN(C)c1ccc(CNC(=O)C2(C)Cc3c(-c4ccc5c(c4)OCO5)ccnc3O2)cc1 (stereo not drawn) | 2630 |
| COc1ccc2c(c1)C(=O)N1[C@H]3c4cc(OC)ccc4OC[C@@H]3[C@H](c3ccccc3)[C@]1(C)C(=O)N2 | 197 |
| CCc1ccc(/C=N/NC(=O)c2nnn(-c3nonc3N)c2C(C)C)cc1 | 6420 |
| Cc1ccc(-n2c(SCC(=O)NCCC3=CCCCC3)nc3n[nH]c(C)c3c2=N)cc1Cl | 6130 |
| COc1ccc2sc3cccc(NCCN(C)C)c3c(=O)c2c1 | 4530 |
